Test results reported in patent publication US9012491B2, “Heterocyclic boronic acid ester derivatives and therapeutic uses thereof” (priority 2011, dated 2015).
Like-named read-outs stand apart in the source and are kept apart here.

Columns and labels:
Format in all cases: cell-based
KPX1001 (OXA-2, class D) = experiment: Tigemonam potentiation (MPC@4) by β-lactamase inhibitors; conditions: tigemonam at 4 μg/mL, strain KPX1001, OXA-2, class D
Experimental: (§1) Selected β-lactamase inhibitors were tested for their ability to potentiate the monobactam tigemonam. […] Tigemonam is present in the test medium at 4 μg/mL. Compounds tested at the highest concentration of 40 μg/mL. In this assay potency of compounds is determined as a concentration of BLIs to inhibit growth of bacteria in the presence of 4 μg/mL of […] (MPC@4).

PAM2035 (class C) = conditions: tigemonam at 4 μg/mL, strain PAM2035, class C
Experimental: as §1

KP1012 (SHV-18) = experiment: Tigemonam potentiation (MPC@4) by β-lactamase inhibitors; conditions: tigemonam at 4 μg/mL; strain KP1012, class A ESBL SHV-18; class symbols
Experimental: as §1

ECL1002 (class C) = experiment: as above; conditions: tigemonam at 4 μg/mL; strain ECL1002, class C; class symbols
Experimental: as §1

KP1010 (SHV-12) = experiment: as above; conditions: tigemonam at 4 μg/mL; strain KP1010, class A ESBL SHV-12; class symbols
Experimental: as §1

EC1010 (CMY-6, class C) = experiment: as above; conditions: tigemonam at 4 μg/mL; strain EC1010, CMY-6, class C; class symbols
Experimental: as §1

ec302 (TEM-10) = experiment: as above; conditions: tigemonam at 4 μg/mL; strain ec302, class A ESBL TEM-10; class symbols
Experimental: as §1

KP1009 (CTX-M-15) = experiment: as above; conditions: tigemonam at 4 μg/mL; strain KP1009, class A ESBL CTX-M-15; class symbols
Experimental: as §1

EC1009 (TEM-10) = experiment: as above; conditions: tigemonam at 4 μg/mL; strain EC1009, class A ESBL TEM-10; class symbols
Experimental: as §1

KP1007 (OXA-10, class D) = experiment: as above; conditions: tigemonam at 4 μg/mL; strain KP1007, OXA-10, class D; class symbols
Experimental: as §1

ec308 (SHV-5) = experiment: as above; conditions: tigemonam at 4 μg/mL; strain ec308, class A ESBL SHV-5; class symbols
Experimental: as §1

KP1005 (CTX-M-14) = experiment: as above; conditions: tigemonam at 4 μg/mL; strain KP1005, class A ESBL CTX-M-14; class symbols
Experimental: as §1

ec304 (TEM-26) = experiment: as above; conditions: tigemonam at 4 μg/mL; strain ec304, class A ESBL TEM-26; class symbols
Experimental: as §1

SMILES | MPC4 OXA-2, KPX1001 (KPX1001 (OXA-2, class D)) [µg/mL] | MPC4 PAM2035 (PAM2035 (class C)) [µg/mL] | MPC4 SHV-18 KP1012 (KP1012 (SHV-18)) | MPC4 ECL1002 (ECL1002 (class C)) | MPC4 OXA-2, KPX1001 (KPX1001 (OXA-2, class D); class symbols) | MPC4 SHV-12 KP1010 (KP1010 (SHV-12)) | MPC4 CMY-6, EC1010 (EC1010 (CMY-6, class C)) | MPC4 TEM-10 ec302 (ec302 (TEM-10)) | MPC4 CTX-M-15 KP1009 (KP1009 (CTX-M-15)) | MPC4 TEM-10 EC1009 (EC1009 (TEM-10)) | MPC4 OXA-10, KP1007 (KP1007 (OXA-10, class D)) | MPC4 SHV-5 ec308 (ec308 (SHV-5)) | MPC4 CTX-M-14 KP1005 (KP1005 (CTX-M-14)) | MPC4 TEM-26 ec304 (ec304 (TEM-26)) | MPC4 PAM2035 (PAM2035 (class C); class symbols)
C[C@]1(Cn2ccnn2)[C@H](C(=O)O)N2C(=O)C[C@H]2S1(=O)=O [Tazobactam] | 40 | 5 | – | – | – | – | – | – | – | – | – | – | – | – | –
O=C(O)CC1COC[C@H](NC(=O)Cc2cccs2)B(O)O1 (stereo partly drawn) [Compound 1, 2-((3R)-2-hydroxy-3-(2-(thiophen-2-yl)acetamido)-1,5,2-dioxaborepan-7-yl)acetic acid] | – | – | X (X = MPC@4 of less than 2 μg/mL.) | Y (Y = MPC@4 of 2 μg/mL to 10 μg/mL.) | X (X = MPC@4 of less than 2 μg/mL.) | X (X = MPC@4 of less than 2 μg/mL.) | X (X = MPC@4 of less than 2 μg/mL.) | Z (Z = MPC@4 of greater than 10 μg/mL.) | Y (Y = MPC@4 of 2 μg/mL to 10 μg/mL.) | Z (Z = MPC@4 of greater than 10 μg/mL.) | Y (Y = MPC@4 of 2 μg/mL to 10 μg/mL.) | Y (Y = MPC@4 of 2 μg/mL to 10 μg/mL.) | Y (Y = MPC@4 of 2 μg/mL to 10 μg/mL.) | Z (Z = MPC@4 of greater than 10 μg/mL.) | Y (Y = MPC@4 of 2 μg/mL to 10 μg/mL.)
COC(=O)N1CC(CC(=O)O)OB(O)[C@@H](NC(=O)Cc2cccs2)C1 (stereo partly shown) [Compound 45] | – | – | – | – | – | X (X = MPC@4 of less than 2 μg/mL.) | – | Z (Z = MPC@4 of greater than 10 μg/mL.) | Y (Y = MPC@4 of 2 μg/mL to 10 μg/mL.) | – | X (X = MPC@4 of less than 2 μg/mL.) | Y (Y = MPC@4 of 2 μg/mL to 10 μg/mL.) | Y (Y = MPC@4 of 2 μg/mL to 10 μg/mL.) | – | –
CC(=O)N1CC(CC(=O)O)OB(O)[C@@H](NC(=O)Cc2cccs2)C1 (stereo partly drawn) [Compound 10, 2-((3R)-5-acetyl-2-hydroxy-3-(2-(thiophen-2-yl)acetamido)-1,5,2-oxazaborepan-7-yl)acetic acid] | – | – | – | Y (Y = MPC@4 of 2 μg/mL to 10 μg/mL.) | – | X (X = MPC@4 of less than 2 μg/mL.) | Y (Y = MPC@4 of 2 μg/mL to 10 μg/mL.) | Z (Z = MPC@4 of greater than 10 μg/mL.) | Y (Y = MPC@4 of 2 μg/mL to 10 μg/mL.) | – | X (X = MPC@4 of less than 2 μg/mL.) | Y (Y = MPC@4 of 2 μg/mL to 10 μg/mL.) | Y (Y = MPC@4 of 2 μg/mL to 10 μg/mL.) | – | –
O=C(O)[C@H]1/C(=C/CO)O[C@@H]2CC(=O)N21 [Clavulanic Acid] | 1.25 | >40 | – | – | – | – | – | – | – | – | – | – | – | – | –
